Holding throughout (assay): NCI-60 cell line screen, 48 h
The subject of test [1] is HCT-116 colon.
Test [2] deals with SR leukemia.
The test system of test [3] is EKVX NSCLC.
For test [4], the system named is A498 renal.
In test [5] the test system is HT29 colon.
For test [6], the system named is SNB-19 CNS.
In test [7] the test system is SW-620 colon.
For test [8], the system named is LOX IMVI melanoma.
Test [9] deals with KM12 colon.
The subject of test [10] is HS 578T breast.
In test [11] the test system is HOP-62 NSCLC.
In test [12] the test system is SNB-75 CNS.
Test [13] concerns NCI-H226 lung.
Test [14] concerns SN12C renal.
Test [15] concerns RXF 393 renal.
In test [16] the test system is UACC-62 melanoma.
The subject of test [17] is MDA-N.
For test [18], the system named is SK-OV-3 ovarian.
In test [19] the test system is SK-MEL-2 melanoma.

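Results reflect a 48-hour exposure of cells in 96-well plates to compound at five concentrations. The concentration for full growth arrest is given as TGI.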 Some results are limits rather than exact numbers.

Consider `CCC(CCCCC1CC[C@H]2CC(=O)C[C@@H]12)OC` (some centres not stated), for which the TGI in [1], in [2], in [3], in test [4], in test [5] and in test [6] was greater than 100 µM each time. Besides, the TGI in [7], in test [8], in test [9], in test [10], in test [11] and in test [12] was greater than 100 µM each time. Also, the TGI in test [13], in [14], in test [15], in [16], in test [17] and in test [18] was greater than 100 µM in each case. The molecule also yielded a TGI in test [19] greater than 100 µM.
Consider `CCCC[Si](CCCC)(CCCC)O[C@@H](/C=C/C(=O)OCC)[C@H](Cc1ccccc1)O[Si](CCCC)(CCCC)CCCC`, for which the TGI in test [1], in [2], in [3], in test [4], in test [5] and in [6] was greater than 100 µM throughout. The TGI in [7], in test [8], in [9], in test [10], in test [11] and in test [12] was greater than 100 µM in each case. Also, the TGI in test [13], in test [14], in [15], in test [16], in [17] and in test [18] was greater than 100 µM throughout. The same molecule gave a TGI in test [19] greater than 100 µM.
As for `CC[C@]12C=CCN3CCC4(c5cc(N=Nc6ccc([N+](=O)[O-])cc6)c(OC)cc5N(C)[C@H]4[C@@](O)(C(=O)OC)[C@@H]1OC(C)=O)[C@@H]32` (some centres not stated), the TGI was 24.6 µM in test [1]; 32 µM in test [2]; 56.9 µM in [3]; 77.2 µM in [4]; 23.9 µM in [5]; greater than 100 µM in [6]. In addition, the TGI in [7] was greater than 100 µM; in [8] it was 47.3 µM; in [9], 33.2 µM; in [10] it was 77.8 µM; in test [11], 43.6 µM; in test [12], 35.1 µM. For the same molecule, the TGI in [13] is 56.5 µM; in test [14] it was 59.8 µM; in test [15], 35.6 µM; in test [16], greater than 100 µM; in test [17], 38.6 µM; in test [18], greater than 100 µM. This molecule also came in with a TGI in test [19] of 43 µM.
For `COc1cc(C2c3cc4c(cc3OC(O)C2C)OCO4)cc(OC)c1O` (configuration not stated), the TGI in test [1] is 38.3 µM; in [2] it was greater than 100 µM; in test [3], greater than 81.9 µM; in [4], 80.6 µM; in test [5], greater than 63.3 µM; in test [6], greater than 46.4 µM. For the same molecule, the TGI in test [7] was greater than 100 µM; in [8], greater than 100 µM; in test [9], greater than 100 µM; in test [10] it was 46.4 µM; in [11], 98.9 µM; in [12], 26 µM. In addition, the TGI was 64.3 µM in test [13]; greater than 75.3 µM in test [14]; greater than 43 µM in test [15]; 52.4 µM in [16]; 5.06 µM in test [17]; 55.7 µM in test [18]. Besides, the TGI in test [19] is greater than 100 µM.
On to `O=c1[nH][nH]c(=S)c(=O)[nH]1`, for which the TGI in test [1], in [2], in test [3], in test [4], in [5] and in [6] was greater than 100 µM each time. The TGI in test [7], in [8], in test [9], in test [10], in test [11] and in [12] was greater than 100 µM each time. Also, the TGI in test [13], in [14], in test [15], in [16], in test [17] and in [18] was greater than 100 µM in each case. Also, the TGI in [19] is greater than 100 µM.
Turning to `O=C1/C(=C/c2ccc(O)cc2)CCc2ccccc21`, the TGI in test [1] came out at 31.6 µM; in test [2], 16 µM; in [3], 58.3 µM; in test [4], 44.5 µM; in test [5], 45 µM; in test [6], 50.7 µM. Further, the TGI was 40.1 µM in test [7]; 49.2 µM in test [8]; 32.2 µM in [9]; 94.3 µM in test [10]; 55.4 µM in test [11]; greater than 70.7 µM in test [12]. Besides, the TGI in test [13] is 57.8 µM; in test [14] it was 38.1 µM; in [15], 35.1 µM; in test [16], 46.2 µM; in [17] it was 57.7 µM; in test [18], greater than 89.4 µM. For the same molecule, the TGI in [19] was 36 µM.
On to `Clc1cccc(Cl)c1C1SCc2nc3ncccc3n21` (configuration not stated), for which the TGI in [1], in [2], in test [3], in [4], in [5] and in test [6] was greater than 100 µM each time. In addition, the TGI in test [7], in [8], in test [9], in test [10], in [11] and in test [12] was greater than 100 µM each time. Besides, the TGI in test [13], in [14], in [15], in test [16], in test [17] and in test [18] was greater than 100 µM each time. Moreover, the TGI in test [19] was greater than 100 µM.
Consider `Nc1nc(Cl)cc(NCC2(CO)CC(Cc3ccccc3)C2)n1` (configuration not stated), for which the TGI is greater than 100 µM in [1]; greater than 56.1 µM in test [2]; greater than 95.1 µM in test [3]; 78.7 µM in [4]; greater than 72.4 µM in test [5]; greater than 100 µM in test [6]. For the same molecule, the TGI in test [7], in test [8], in [9], in [10], in [11] and in test [12] was greater than 100 µM throughout. In addition, the TGI in test [13] is greater than 91.1 µM; in test [14] it was greater than 100 µM; in [15], greater than 93.5 µM; in test [16], greater than 100 µM; in test [17] it was greater than 86.9 µM; in [18], greater than 100 µM. The TGI in [19] was greater than 72.5 µM.

Values taken from PubChem BioAssay (NCI).
